Patent US20030045679A1, “Calcineurin modulators” (priority 2001, published 2003)
Read-outs that look alike come from different tables or passages of the source.

How the values were obtained:
[1] = test system: HA-1 cells; conditions: 160 μM hydrogen peroxide; cited from earlier work
[2] = test system: HA-1 cells; assay: Cytotoxicity of A23187 and hydrogen peroxide on stable transfectants, propidium iodide uptake by flow cytometry; conditions: n = 4
Protocol: (§1) MATERIAL AND METHODS: Cell culture and treatment conditions. Chinese hamster HA-1 fibroblasts were maintained in Eagle's minimal essential medium supplemented with 8% heat inactivated fetal bovine serum, penicillin (100 units/ml) and streptomycin (100μg/ml). Cultures were grown in a humidified incubator atmosphere of 95% air and 5% CO2 at 37 °C.
(§2) Stress analyses. Control cells and lines 7, 10, and 15 were grown to log phase and equal confluency (75%). At this time, the cells were exposed to each stress agent and cytotoxicity measured. For the oxidative stress studies, a stock solution of hydrogen peroxide (30% w/w) was diluted in phosphate-buffered saline just prior to cell exposure. At the time of treatment, the HA-1 cultures were taken from the incubator and freshly diluted-peroxide added to the culture dishes. The cells were then returned to the incubator for the appropriate times.
(§3) Stable adapt78-overexpressing, vector control and non-transfected control HA-1 cells were exposed to 4 μg/ml calcium ionophore A23187 or […] for 60 minutes (A23187) or 90 minutes (hydrogen peroxide). Cytotoxicity was then determined by propidium iodide uptake using flow cytometry as follows. After treatment, monolayers were rinsed with PBS containing 3 mM EDTA, then covered with the same for 5 minutes at room temperature before suspending cells by gentle trituration. Cytotoxicity was then measured using propidium iodide and the stained cells analyzed by flow cytometry using a Becton Dickinson FAC Scan. The ModFit analytical software program was used to quantify the percentage of cytotoxicity.
(§4) Control cells and lines 7, 10, and 15 were grown to log phase and equal confluency (75%), then treated with 4 μg/ml A23187 and separately, 5 mM hydrogen peroxide. Cytotoxicity was then assessed by propidium iodide uptake using flow cytometry. Fold protection was calculated as the percent viability of cells compared with untransfected after subtracting out background (cells treated with solvent only). The average of untransfected percent viability was arbitrarily set at 1.0.

[3] = test system: HA-1 cells; conditions: stained 7 days later, cited from earlier work
[4] = Cytotoxicity of A23187 and hydrogen peroxide on stable transfectants, propidium iodide uptake by flow cytometry; conditions: Chinese hamster, Percent cytotoxicity, 4 μg/ml A23187
Protocol: as §1, §2, §3, §4

SMILES	cytotoxicity using trypan blue exclusion [1]	Fold protection +/− 1 S.D. ([2]; 5 mM hydrogen peroxide, Clone 10 vs Untransfected)	Fold protection +/− 1 S.D. ([2]; 5 mM hydrogen peroxide, Clone 15 vs Untransfected)	Fold protection +/− 1 S.D. ([2]; 5 mM hydrogen peroxide, Untransfected HA-1 cells (set at 1.0))	Fold protection +/− 1 S.D. ([2]; 5 mM hydrogen peroxide, Vector transfected HA-1 cells vs Untransfected)	decrease in colony number compared with control ([3]; 160 μM hydrogen peroxide for 5 hours)	decrease in colony number compared with control ([3]; 400 μM hydrogen peroxide for 5 hours)	Fold protection +/− 1 S.D. ([2]; 4 μg/ml A23187, Clone 7 vs Untransfected)	Fold protection +/− 1 S.D. ([2]; 4 μg/ml A23187, Clone 10 vs Untransfected)	Fold protection +/− 1 S.D. ([2]; 4 μg/ml A23187, Clone 15 vs Untransfected)	Fold protection +/− 1 S.D. ([2]; 4 μg/ml A23187, Untransfected HA-1 cells (set at 1.0))	Fold protection +/− 1 S.D. ([2]; 4 μg/ml A23187, Vector transfected HA-1 cells vs Untransfected)	cytotoxicity at 60 min, 4 μg/ml ([4]; Untransfected HA-1 cells)	cytotoxicity at 60 min, 4 μg/ml ([4]; Vector transfected HA-1 cells)	cytotoxicity at 60 min, 4 μg/ml ([4]; adapt78 overexpressing Clone 7)	cytotoxicity at 60 min, 4 μg/ml ([4]; adapt78 overexpressing Clone 10)	cytotoxicity at 60 min, 4 μg/ml ([4]; adapt78 overexpressing Clone 15)
OO [Peroxide, hydrogen peroxide]	no associated cytotoxicity was observed	3.7 +/− 0.6 fold	4.2 +/− 0.6 fold	1.0 +/− 0.3 fold	1.0 +/− 0.4 fold	79.5%	97.8%										
CNc1ccc2oc(C[C@H]3O[C@@]4(CC[C@H]3C)O[C@H]([C@H](C)C(=O)c3ccc[nH]3)[C@H](C)C[C@H]4C)nc2c1C(=O)O [A23187]								4.8 +/− 0.5 fold	4.1 +/− 1.0 fold	4.1 +/− 0.3 fold	1.0 +/− 0.4 fold	1.1 +/− 0.3 fold	48.2%	44%	10.1%	11.7%	11.8%
